Data: patent US12409182B2, “Compositions and uses thereof for treatment of idiopathic preterm birth” (UNIVERSITY OF SOUTH FLORIDA, priority 2020, dated 2025)

What was measured:
[1] = tested on: FKBP51; test: Dexamethasone-induced FKBP51 protein levels in decidual cell monolayers (immunoblot); assay type: cell-based; conditions: confluent leukocyte-free term decidual cells, 10^-7 M Dex + compound, 24 h
Protocol: Three endogenous biochemicals (CC #1, CC #2, CC #3), which exist in human blood/tissues were tested as potential inhibitors of FKBP51 expression/action and confirmed that dexamethasone-induced inhibits FKBP51 expression in decidual cell cultures by all three compounds (FIG. 1).

[2] = tested on: maternal stress induced pregnant mice; test: Maternal restraint stress induced preterm birth and fetal growth restriction in wild-type mice; assay type: in vivo; conditions: for litter size: 0.5 mg/kg daily i.p. GD14 to GD18, maternal stress administered mice; for maternal stress induced fetal growth restriction (pup birth weight) / maternal stress induced preterm birth (gestational length): 0.5 mg/kg daily i.p. GD14 to GD18, restraint stress GD8-GD18, vs placebo
Protocol: (§1) Wild-type adult female mice were mated with adult males by housing 1:1 for 4 h (9.00 am-1.00 pm). Pregnancy was confirmed by observing vaginal plug and the presence of sperm in vaginal smears, which was designated as gestation day (GD) 0 dpc (10.00 am). Time-mated pregnant mice were randomly assigned into non-stress or restraint stress (ST) groups. Restraint stress was administered in three sessions for 1 h using standard restraint chambers starting on GD 8 through GD 18, while the control group was left undisturbed during pregnancy. Before first restrained stress administration, daily intraperitoneal injection of CC #1 (0.5 mg/kg) or CC #2 (0.5 mg/kg) or placebo (PBS) was administered in ST-mice from GD14 to GD 18. The timing of delivery was monitored. Pups weight, litter size, numbers of live and dead pups were recorded.
as §1, with “Experimental design to test effects of CC #1 and CC #2 administration in maternal stress induced pregnant mice (FIG. 2). Wild-type adult” for “Wild-type adult”, “stress was performed in three” for “stress was administered in three”, “daily intraperitoneal (I.P.) injection of” for “daily intraperitoneal injection of”

[3] = tested on: FKBP51; conditions: cultured primary human decidual cells; cited from earlier work
[4] = tested on: Srd5a1 deficient mice; conditions: Srd5a1 deficient mice (27% delivery rate without treatment); cited from earlier work
[5] = tested on: Fkbp5+/+ and Fkbp5-/- mice; test: Maternal dexamethasone or corticosterone injection, gestational length in Fkbp5+/+ or Fkbp5-/- mice; assay type: in vivo; conditions: corticosterone 10 mg/kg s.c. daily E8 through E18, Fkbp5+/+ or Fkbp5-/- mice
Protocol: Timing of Labor in Fkbp5^+/+ and Fkbp5^−/− Mice. To examine the effect of deletion of the Fkbp5 gene on birth timing, female Fkbp5^+/+ and Fkbp5^−/− mice (6-8 weeks-old) were mated with an adult Fkbp5^+/+ male (12-16 weeks old) by housing 1:1 for 4 h (9.00 am-1.00 pm). Pregnancy was confirmed by the presence of a vaginal plug or sperm in vaginal smears; gestational day (E) was designated at that time (10.00 am) as 0 dpc of pregnancy. The timing of delivery was monitored from E18 through E21 by observing mice every 4 h upon completion of delivery, and gestational length was calculated. Litter size, numbers of live and dead pups were recorded. Additionally, to determine whether there was a relative contribution of fetal genotype on birth timing, female Fkbp5^−/− mice were also mated with an adult male Fkbp5^−/− mice as described above and timing of labor was recorded.
Maternal Dexamethasone or Corticosterone injection. Dexamethasone-21-phosphate disodium salt (DEX; Sigma-Aldrich, St. Louis, MO) suspended in sterile PBS was administered intraperitoneally at 200 μg/kg. Corticosterone (CORT; Sigma-Aldrich) was dissolved in ethyl alcohol and diluted in PBS before injection and administered subcutaneously at 10 mg/kg. […]

CCCCC/C=C/C=C1/C(=O)C=C[C@@H]1C/C=C\CCCC(=O)O [CC #1, 15-deoxy-Δ12,14-prostaglandin J2]
dexamethasone-induced FKBP51 protein levels [1]: inhibits dexamethasone-induced FKBP51 protein levels | litter size [2]: did not affect litter size | maternal stress induced fetal growth restriction (pup birth weight) [2]: prevent maternal stress induced FGR | maternal stress induced preterm birth (gestational length) [2]: prevent maternal stress induced PTB

CC(=O)O[C@]1(C(C)=O)CC[C@H]2[C@@H]3C[C@H](C)C4=CC(=O)CC[C@]4(C)[C@H]3CC[C@@]21C [medroxyprogesterone acetate]
FKBP51 levels [3]: up-regulated

CC[C@@H]1C[C@H]2[C@@H]3CCC4=CC(=O)CC[C@@H]4[C@H]3CC[C@]2(C)[C@H]1C(=O)CO [Organon 2058]
FKBP51 levels [3]: minimal stimulatory effects

CN(C)c1ccc([C@H]2C[C@]3(C)[C@@H](CC[C@]3(O)CCCO)[C@@H]3CCC4=CC(=O)CCC4=C32)cc1 [ZK98299]
parturition rate [4]: 100%

C[C@]12C[C@H](O)[C@H]3[C@@H](CCC4=CC(=O)CC[C@@]43C)[C@@H]1CC[C@@H]2C(=O)CO [corticosterone, Corticosterone]
gestational length [5]: did not shorten gestation

CCCCCCCC/C(=C\CCCCCCCC(=O)O)[N+](=O)[O-] [CC #2, 10-nitro-9E-octadecenoic acid]
dexamethasone-induced FKBP51 protein levels [1]: inhibits dexamethasone-induced FKBP51 protein levels | litter size [2]: did not affect litter size | maternal stress induced fetal growth restriction (pup birth weight) [2]: prevent maternal stress induced FGR | maternal stress induced preterm birth (gestational length) [2]: prevent maternal stress induced PTB

CCCCCCCC/C=C(\CCCCCCCC(=O)O)[N+](=O)[O-] [CC #3, 9-nitro-9E-octadecenoic acid]
dexamethasone-induced FKBP51 protein levels [1]: inhibits dexamethasone-induced FKBP51 protein levels
